# From patent publication US9295732B2, “Conjugated TLR7 and/or TLR8 and TLR2 polycationic agonists” (CAYLA, priority 2013, dated 2016)
# Several values for one entry are separate records, joined by “and”; a condition that tells them apart may be missing. Equal values may be shown once.
# What was measured:
# B16-F1 tumor = test: In vivo mouse B16-F1 tumor model, molecule alone; design: species or system C57BL/6 mice; settings: by day 42, intra-tumoral injections, FIG. 8B
# Method: Measurements were performed under gas anesthesia.
# The second group received intra-tumoral injections of CL413 molecule alone (a TLR7-TLR2 Pam2CSK4-based molecule). Third and forth groups received intra-tumoral injections of the TLR2 ligand, Pam2CSK4 alone, and the TLR7 ligand alone, respectively. A fifth group received a combined treatment of Pam2CSK4 and TLR7 ligand, in solution at the equivalent molecule quantity of the respective TLR2 and TLR7 moieties in CL413 (in 100 μl Bionolyte G5® with Pluronic® F-68 2%) for a total of 3 injections.
# [1] = tested on: endogenous TLR2 and TLR7 in RAW-Blue™ Cells; test: RAW-Blue Cells NF-κB/AP-1 SEAP reporter assay; format: cell-based, mouse; settings: 24 hours, OD at 655 nm, FIG. 4
# Method: (§1) Cell-based assays were carried out using TLR7 and TLR2 reporter cell lines (InvivoGen). The reporter cell lines are engineered HEK293 cells, a human embryonic kidney cell line (ATCC, CRL-1573) that stably express either murine TLR7 (HEK-Blue™ mTLR7) or human TLR7 (HEK-Blue™ hTLR7) or human TLR2 (HEK-Blue™ hTLR2) with an NF-κB-inducible secreted embryonic alkaline phosphatase (SEAP) as the reporter gene. The SEAP reporter gene is under the control of the NF-κB and AP-1-inducible promoter, which, upon treatment with a corresponding TLR ligand and activation of NF-κB and AP-1, induces the production of SEAP. Detection of SEAP is measured following culturing cells in HEK-Blue™ Detection media (InvivoGen). HEK-Blue™ Detection contains a SEAP substrate that when hydrolysed by SEAP produces a colorimetric change allowing for detection of SEAP as the protein is secreted. […] These assays were carried out using RAW-Blue™ Cells (InvivoGen), derived from RAW 264.7 mouse leukemic monocyte macrophage cell line (ATCC, CRL 2278) stably overexpressing a NF-B/AP-1 inducible SEAP reporter constructs.
# (§2) To perform the assay, cells were seeded on 96 well microliter plates at 50,000 or 100,000 cells per well for HEK-Blue™ Cells and RAW-Blue™ Cells respectively, and cultured at 37° C. in the presence of the conjugated compounds The TLR7-TLR2 polyamine molecules were prepared as follows: First, stock solutions of the conjugated compounds of the invention were prepared in ethanol or water to a concentration of 10 mg/ml.
# (§3) The working dilutions of the conjugated TLR7-TLR2 polyamine agonists made up in water or PBS were directly added to the reporter cell lines at a final concentration ranging from 10 μg/mL to 10 pg/ml and incubated at 37° C. for 24 hours. After 24 hours of incubation, the effect on reporter gene activity was determined by reading the OD at 655 nm using iMark™ Microplate Reader (BIO-RAD).
# human TLR2 = target: T1, human TLR2 (Homo sapiens, UniProt O60603); test: HEK-Blue hTLR2 NF-κB/AP-1 SEAP reporter assay; format: cell-based; settings: HEK-Blue hTLR2 cells, 10 μg/mL to 10 pg/ml, 24 hours, OD at 655 nm, FIG. 3
# T1 construct: host or cells: HEK293 (HEK-Blue™ hTLR2)
# T1 sequence (O60603 21-784): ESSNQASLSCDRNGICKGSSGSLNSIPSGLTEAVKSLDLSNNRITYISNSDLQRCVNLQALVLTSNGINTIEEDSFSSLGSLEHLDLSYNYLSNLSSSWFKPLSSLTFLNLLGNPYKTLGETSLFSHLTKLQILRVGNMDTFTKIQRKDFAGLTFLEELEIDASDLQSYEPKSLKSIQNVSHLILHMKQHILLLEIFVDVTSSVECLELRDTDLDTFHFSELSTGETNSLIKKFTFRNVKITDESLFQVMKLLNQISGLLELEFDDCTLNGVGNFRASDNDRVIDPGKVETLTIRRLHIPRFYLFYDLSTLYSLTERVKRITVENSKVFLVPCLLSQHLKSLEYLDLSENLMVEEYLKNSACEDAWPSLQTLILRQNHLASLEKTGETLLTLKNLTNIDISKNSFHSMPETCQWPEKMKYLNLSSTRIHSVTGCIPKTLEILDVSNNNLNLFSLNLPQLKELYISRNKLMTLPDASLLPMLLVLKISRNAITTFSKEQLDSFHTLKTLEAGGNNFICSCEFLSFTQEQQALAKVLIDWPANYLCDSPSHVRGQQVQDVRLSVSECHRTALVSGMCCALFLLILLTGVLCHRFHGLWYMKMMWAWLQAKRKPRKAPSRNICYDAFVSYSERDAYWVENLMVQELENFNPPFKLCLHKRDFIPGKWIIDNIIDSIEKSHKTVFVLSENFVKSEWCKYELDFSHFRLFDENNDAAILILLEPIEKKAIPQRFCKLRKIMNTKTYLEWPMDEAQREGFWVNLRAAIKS
# Method: as §1, §2, §3
# [2] = Nanoparticle (lipoplex) size by dynamic light scattering; settings: 25° C., triplicate;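 further: lipoplexes of TLR7-TLR2 polyamine conjugates with plasmid DNA, formed over 30 min at room temperature in serum-free medium or 5% glucose, diameter in nm, PDI dimensionless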
# plasmid DNA (pDNA) = test: Gel shift (mobility shift) assay of pDNA complexation; format: binding; settings: pDNA:molecule ratio 3:24 (w:w), 0.8% agarose gel, compared to pDNA alone
# Method: Then, 10 μl of pDNA:TLR7-TLR2 polyamine molecule complexes and 2 μl of charge buffer were mixed and loaded into wells of a 0.8% agarose gel. Samples were migrated through the gel in TAE buffer under 135 voltage for 21 mins and the migration of the pDNA was visualized following ethidium bromide staining under UV light. The ability of TLR7-TLR2 polyamine molecules to complex/associate with the pDNA was identified by partial or complete retardation of the pDNA migration toward the anode in the gel compared to pDNA alone. […] Ethidium bromide intercalation of pDNA in complex with molecules allowed visualization of complexed pDNA as a smear in the wells of the gel.
# murine TLR7 = target: T2, murine TLR7 (Mus musculus, UniProt P58681); test: HEK-Blue mTLR7 NF-κB/AP-1 SEAP reporter assay; format: cell-based; settings: HEK-Blue mTLR7 cells, 10 μg/mL to 10 pg/ml, 24 hours, OD at 655 nm, FIG. 2
# T2 construct: host or cells: HEK293 (HEK-Blue™ mTLR7)
# T2 sequence (P58681 27-1050): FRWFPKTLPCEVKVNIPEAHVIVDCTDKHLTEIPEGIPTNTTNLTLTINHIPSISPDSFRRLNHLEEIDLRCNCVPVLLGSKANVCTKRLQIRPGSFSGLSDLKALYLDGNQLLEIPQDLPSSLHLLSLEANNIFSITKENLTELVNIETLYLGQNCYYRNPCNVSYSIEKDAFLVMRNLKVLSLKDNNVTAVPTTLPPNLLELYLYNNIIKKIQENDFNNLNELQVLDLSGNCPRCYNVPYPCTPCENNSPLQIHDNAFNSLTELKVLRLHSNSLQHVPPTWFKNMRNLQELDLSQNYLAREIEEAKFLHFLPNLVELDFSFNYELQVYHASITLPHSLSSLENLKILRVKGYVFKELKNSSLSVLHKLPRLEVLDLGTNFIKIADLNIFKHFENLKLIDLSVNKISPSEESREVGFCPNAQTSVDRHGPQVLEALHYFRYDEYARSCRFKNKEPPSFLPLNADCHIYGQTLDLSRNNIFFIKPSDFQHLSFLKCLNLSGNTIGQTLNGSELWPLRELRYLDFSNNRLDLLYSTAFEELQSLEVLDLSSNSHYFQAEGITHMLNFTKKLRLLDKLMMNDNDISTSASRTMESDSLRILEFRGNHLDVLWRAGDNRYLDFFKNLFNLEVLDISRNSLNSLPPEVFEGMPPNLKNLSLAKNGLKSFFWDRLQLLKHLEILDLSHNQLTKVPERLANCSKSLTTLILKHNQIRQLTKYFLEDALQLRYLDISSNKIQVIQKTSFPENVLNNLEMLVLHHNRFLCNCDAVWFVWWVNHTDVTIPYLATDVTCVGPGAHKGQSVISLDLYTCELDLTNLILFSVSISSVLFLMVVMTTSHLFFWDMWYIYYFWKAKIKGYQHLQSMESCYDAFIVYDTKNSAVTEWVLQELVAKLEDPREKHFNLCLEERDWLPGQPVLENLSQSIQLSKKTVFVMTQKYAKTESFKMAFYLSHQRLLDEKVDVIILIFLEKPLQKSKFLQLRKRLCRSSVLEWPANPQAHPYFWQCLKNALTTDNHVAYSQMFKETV
# Method: as §1, §2, §3
# human TLR7 = target: T3, human TLR7 (Homo sapiens, UniProt Q9NYK1); test: HEK-Blue hTLR7 NF-κB/AP-1 SEAP reporter assay; format: cell-based; settings: HEK-Blue hTLR7 cells, 10 μg/mL to 10 pg/ml, 24 hours, OD at 655 nm, FIG. 1
# T3 construct: host or cells: HEK293 (HEK-Blue™ hTLR7)
# T3 sequence (Q9NYK1 27-1049): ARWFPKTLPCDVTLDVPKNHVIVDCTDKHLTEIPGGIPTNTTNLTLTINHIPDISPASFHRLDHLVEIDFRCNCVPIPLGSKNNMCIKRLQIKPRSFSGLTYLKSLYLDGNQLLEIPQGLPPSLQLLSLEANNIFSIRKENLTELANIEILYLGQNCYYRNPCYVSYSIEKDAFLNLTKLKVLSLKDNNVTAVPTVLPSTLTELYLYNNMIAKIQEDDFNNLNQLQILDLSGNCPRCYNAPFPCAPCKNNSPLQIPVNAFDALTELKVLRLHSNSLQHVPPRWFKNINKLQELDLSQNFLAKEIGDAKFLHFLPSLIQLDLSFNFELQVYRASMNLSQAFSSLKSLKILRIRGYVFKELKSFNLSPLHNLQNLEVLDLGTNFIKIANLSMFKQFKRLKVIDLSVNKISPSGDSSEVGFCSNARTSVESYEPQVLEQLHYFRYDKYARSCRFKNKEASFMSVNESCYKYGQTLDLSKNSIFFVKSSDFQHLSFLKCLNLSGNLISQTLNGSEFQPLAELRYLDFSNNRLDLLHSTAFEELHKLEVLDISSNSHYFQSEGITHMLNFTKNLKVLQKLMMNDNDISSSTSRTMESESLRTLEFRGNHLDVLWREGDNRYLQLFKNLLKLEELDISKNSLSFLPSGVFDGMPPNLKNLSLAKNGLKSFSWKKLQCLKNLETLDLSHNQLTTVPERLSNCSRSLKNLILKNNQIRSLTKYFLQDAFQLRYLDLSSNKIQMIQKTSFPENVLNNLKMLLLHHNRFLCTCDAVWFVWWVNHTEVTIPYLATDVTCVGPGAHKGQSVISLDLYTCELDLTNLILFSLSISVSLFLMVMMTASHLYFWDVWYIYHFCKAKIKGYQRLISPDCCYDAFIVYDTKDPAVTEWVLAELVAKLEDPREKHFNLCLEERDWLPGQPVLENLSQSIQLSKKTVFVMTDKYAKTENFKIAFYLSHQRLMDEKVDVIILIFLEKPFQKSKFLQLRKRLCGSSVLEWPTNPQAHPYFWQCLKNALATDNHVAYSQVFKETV
# Method: as §1, §2, §3
Compound,mice still alive (survival) (B16-F1 tumor) [%],ability to activate endogenous TLR2 and TLR7 in RAW-Blue Cells [1],ability to activate hTLR2 (human TLR2),"Mean Diameter ([2]; complexes with pDNA 3:24 (w:w), dynamic light scattering)",PDI ([2]; polydispersity index of complexes with pDNA 3:24 (w:w)),ability to complex pDNA (retardation of pDNA migration in agarose gel) (plasmid DNA (pDNA)),ability to activate mTLR7 (murine TLR7),ability to activate hTLR7 (human TLR7)
"dipalmitoyl-S-glyceryl cysteine-serine-(lysine)4 [Pam2CSK4, reference compound]",60,,,,,,,
"CCCCCCCCCCCCCCCC(=O)OCC(CSC[C@H](N)C(=O)N[C@@H](CCCCNC(=O)CNC(=O)c1ccc(Cn2c(O)nc3c(N)nc(NCCCC)nc32)cc1)C(=O)NCCCNCCCCNCCCN)OC(=O)CCCCCCCCCCCCCCC (stereo partly drawn) [CL475, (6R,9S)-6,23-diamino-9-(4-(2-(4-((6-amino-2-(butylamino)-8-hydroxy-9H-purin-9-yl)methyl)benzamido)acetamido)butyl)-7,10-dioxo-4-thia-8,11,15,20-tetraazatrico sane-1,2-diyl dipalmitate]",,activate endogenous TLR2 and TLR7,activate hTLR2,145.9 nm and 155.8 nm and 153.5 nm,0.193 and 0.176 and 0.158,inability to migrate through an agarose gel,activate mTLR7,activate hTLR7
